Assays:
Assay type in all cases: cell-based, human
[1] = tested on: COPD HBECs; assay: Induction of jamming in COPD HBECs
Description: (§1) Epithelial Cell Culture: Primary human bronchial epithelial cells (HBECs) were obtained from two sources (1) provided by Dr. Hong Wei Chu at National Jewish Health, or (2) lung transplant collection at the University of Colorado Hospital (IRB protocol: 11-1664 or 18-0572). Epithelial cells from bronchial brushes or CT-guided dissection were expanded to passage 2 before being cultured at air liquid interface (ALI). Control (N=11), IPF (N=6), and COPD (N=3) were age matched and controls had no history of chronic lung disease (Table 1). Cells were seeded on 24-Transwell plates (Corning, Corning, New York, 3470) coated with type I collagen (Corning, Corning, New York, 354236) and maintained under submerged conditions for five to seven days until the cells reached confluence. Culture media was a 1:1 mixture of DMEM and BEBM (Lonza, Basel, Switzerland, CC170) supplemented with retinoic acid (Sigma-Aldrich, Germany, R-2625) nystatin (Sigma-Aldrich, Germany N1638), and bovine serum albumin (FisherSci, Thermo Fisher Scientific, Waltham, Massachusetts BP9703100). Once confluent, apical media was removed and maintained at ALI. HBECs began recapitulating the in vivo airway, with production of mucus (6-9 days after establishing ALI) and development of a pseudostratified epithelium. Cells were switched to a starvation media (lacking supplemental epidermal growth factor, hydrocortisone, and bovine pituitary extract) 24 hours prior to experimentation.
For inhibitor, activator, and ligand treatments HBECs were cultured in a starvation media in the absence of EGF, hydrocortisone, and bovine pituitary extract for 24 hours prior to treatment initiation. Cells were then treated for 2-4 hours (with exception of AREG neutralizing antibody which was maintained in the culture media), media was aspirated, the wells were washed with warm PBS and then replaced with fresh starvation media without inhibitor/activator/ligand present, and subsequently imaged. For experiments that required subsequent media changes (96 hour) cells fresh starvation media was changed 48 hours afterwards. […]

[2] = tested on: IPF HBECs; assay: Gene expression of ERBB receptors, YAP target genes and MUC5B in IPF HBECs; settings: IPF HBECs after inhibition
Experimental: Quantitative RT-PCR Analysis: Total RNA was extracted using RNeasy® Mini kit (Qiagen, Hilden, Germany) and quantified by NanoDrop™ (ThermoFisher Scientific™, Waltham, Massachusetts).Reverse transcription was completed using the High Capacity cDNA Reverse Transcription Kit (Applied Biosystems™, Thermo Fisher Scientific™, Waltham, Massachusetts). Gene expression was analyzed by using TaqMan® Advanced Master Mix (Thermo Fisher Scientific™, Waltham, Massachusetts and TaqMan® assays. They were subsequently run in triplicate on the ViiA™ 7 Real-Time machine (Thermo Fisher Scientific™, Waltham, Massachusetts). Primer IDs were: β-ACTIN, Hs01060665_g1; MUC5B, Hs00861595_m1; MUC5AC, Hs01365616_m1; EGFR, Hs0176090_m1; ERBB2, Hs01001580_m1; ZEB1, Hs00232783_m1; SNAI1, Hs00195591_m1; VIM, Hs00185584_m1; CTGF, Hs00170014_m1; AREG, Hs00950669_m1; FN1, Hs01549976_m1; PDGFRA, Hs00998018_m1; PDGFA, Hs00234994_m1; PDGFRB, Hs01019589_m1; PDGFB, Hs00966522_m1; TGFBRI, Hs00610320_m1; TGFBI, Hs00998133_m1; COL1A1, Hs00164004_m1; ACTA2, Hs00426835; MMP3, Hs00968305_m1; MMP9, Hs00957562_m1; TIMP1, Hs01092512_g1; and TIMP2, Hs00234278_m1.

[3] = tested on: IPF HBECs; assay: YAP immunofluorescence in IPF HBECs; settings: IPF HBECs 48 hours after treatment
Experimental: (§2) Immunofluorescence staining: Cells were fixed with 4% paraformaldehyde in PBS with calcium and magnesium for 30 minutes at room temperature. Cells were then washed with PBS and subsequently permeabilized (Triton™-X, at 0.1%) and blocked with 5% bovine serum albumin in PBS for 1 hour at room temperature. Cells were then incubated for >16 hours at 4 degrees with primary antibodies. Primary antibodies were aspirated, and cells were washed with PBS+0.1% Tween-20 at room temperature. Cells were then incubated for 1 hour at room temperature with secondary antibodies (1:500) and/or Phalloidin-iFluor™ 488 1:2000. Cells were stained with 4′,6-diamidino-2-phenylindole at 1:20000 (BioLegend®, San Diego, California, 422801). Subsequently, transwell membranes, or hydrogels, were removed from the well and mounted on glass slides with Fluoromount-G® (SouthernBiotech™, Birmingham, Alabama, 0100-01). Slides were then visualized using an Olympus BX63 microscope (Olympus, Tokyo, Japan).
(§3) Immunofluorescence and cell number quantification for HBEC experiments: For total fluorescence quantification (i.e., ERBB2), all images were processed in the same manner with the same microscopy settings. To determine mean fluorescence the channel of interest was separated in ImageJ, and the mean gray value was measured for the field of view and normalized by the total number of cells. Cell counting was achieved by taking 40×images and manually counting all nuclei in a field of view (approximately 200-300). The number of cells also expressing the marker of interested were then counted and normalized by the total number of cells per field. For each experiment a biological n≥3 was used with at least 5 fields of view per well and at least 2 wells being counted in total per donor.

[4] = tested on: IPF HBECs; assay: Induction of the unjammed-to-jammed transition (UJT) in IPF HBECs; settings: day 14 IPF HBECs
Description: as §1
(§4) For inhibitor, activator, and ligand treatments HBECs were cultured in a starvation media in the absence of EGF, hydrocortisone, and bovine pituitary extract for 24 hours prior to treatment initiation. Cells were then treated for 2-4 hours (with exception of AREG neutralizing antibody which was maintained in the culture media), media was aspirated, the wells were washed with warm PBS and then replaced with fresh starvation media without inhibitor/activator/ligand present, and subsequently imaged. For experiments that required subsequent media changes (96 hour) cells fresh starvation media was changed 48 hours afterwards.
(§5) Live Cell Imaging and Dynamics Measurement: To assess cellular dynamics, time-lapse microscopy and subsequent analysis were completed. Two imaging schemes were utilized: (1) images were taken every 5 minutes for 200 minutes during HBEC differentiation; (2) images were taken every 20 minutes for 48, 96, or 144 hours after HBEC experimental intervention. Phase contrast images were acquired on a Keyence BZ-X810 with a stage incubator (37° C., 5% CO2). Dynamic analysis followed previously published workflows (10-12, 22). Briefly, using phase contrast images instantaneous velocities were mapped by particle image velocimetry utilizing open source PIVLab on MATLAB. Velocity fields were obtained with 2 passes (64×64 and 32×32 pixel size interrogation window with 50% overlap) with a pixel size of 0.75488 μm using a Fast Fourier Transformation method. Trajectories from the PIV were seeded onto a grid and obtained via forward-integration of subsequent fields. These values were then used to determine mean-squared-displacement (MSD) and self-overlap order parameter (Q): MSD(Δt)= ? ri(t+Δt)−ri(t)|2 ? and Q(Δt)=N−1ΣwiNi=1 as previously published. Instantaneous room mean squared velocity (VRMS) of the monolayer was obtained as previously published: VRMS(t)=√1MΣ ? |v(t)2 ? jMj=1
(§6) Cell Shape Analysis: Cell shape measurements were achieved via cell border delineation by F-actin immunofluorescence. Images were segmented utilizing SeedWater Segmenter. Similar to previously published workflows, we segmented images which were subsequently analyzed in ImageJ for the shape index (q=Perimeter√Area) and aspect ratio (major and minor axis) for all cells within a given field of view. For each experimental condition an n≥3 was used with at least 3 independent wells per donor per treatment condition. […]

[5] = tested on: control HBECs; assay: Induced unjamming of control HBECs at air-liquid interface (live cell imaging, cell shape); settings: for ability to induce an unjammed state in control epithelia: control HBECs at ALI day 14
Description: as §1, §4, §5, §6

[6] = tested on: control HBECs; assay: Immunofluorescence of Ki67 and YAP in control HBECs
Experimental: as §2, §3

[7] = control HBECs, 48 hours after treatment

Compound | transcription of ERBB receptors, YAP target genes and MUC5B [2] | YAP nuclear exclusion [3] | induction of the UJT (jamming) in IPF epithelia [4] | other results
COc1cc2ncnc(Nc3cccc(Cl)c3)c2cc1OC [AG1478, Tyrphostin AG-1478] | reduced the transcription of ERBB receptors, YAP target genes, and MUC5B nearly back to control levels | results in YAP nuclear exclusion | halted migration and induced a cobblestone appearance in the epithelia | induction of jamming in COPD epithelia [1]: not responsive to ERBB-YAP inhibition
C#Cc1cccc(Nc2ncnc3cc(OCCOC)c(OCCOC)cc23)c1 [Erlotinib] | decreases 738 ERBB-YAP target gene expression | results in YAP nuclear exclusion | induces jamming in IPF epithelia | 
CNc1nc(-c2ccc3c(N)n[nH]c3c2)cc(N2C[C@@H](C(=O)NC3CCCCC3)CC[C@H]2C)n1 [GSK2334470] |  | results in YAP nuclear exclusion | induces jamming in IPF epithelia | 
CS(=O)(=O)CCNCc1ccc(-c2ccc3ncnc(Nc4ccc(OCc5cccc(F)c5)c(Cl)c4)c3c2)o1 [Lapatinib] | decreases 738 ERBB-YAP target gene expression | results in YAP nuclear exclusion | induces jamming in IPF epithelia | 
NC1(c2ccc(-c3nc4ccn5c(=O)[nH]nc5c4cc3-c3ccccc3)cc2)CCC1 [MK-2206] |  |  | did not induce the UJT | 
FC(F)(F)c1ccc(/C=C/c2nc(COc3ccc(CCCCn4ccnn4)cc3)co2)cc1 [Mubritinib] | decreases 738 ERBB-YAP target gene expression | results in YAP nuclear exclusion | induces jamming in IPF epithelia | 
NCC(=O)Nc1ccc(-n2nc(C(F)(F)F)cc2-c2ccc3c(ccc4ccccc43)c2)cc1 [OSU03012, OSU-03012] | decreases 738 ERBB-YAP target gene expression | results in YAP nuclear exclusion | induces jamming in IPF epithelia | induction of jamming in COPD epithelia [1]: not responsive to ERBB-YAP inhibition
CN1CCN(c2nc(C3=C(c4c[nH]c5ccccc45)C(=O)NC3=O)c3ccccc3n2)CC1 [Sotrastaurin] |  |  | did not induce the UJT | 
CN1C(=O)c2sccc2N(C)c2nc(Nc3ccc(S(N)(=O)=O)cc3)ncc21 [XMU-MP-1] |  |  |  | ability to induce an unjammed state in control epithelia [5]: had the ability to elicit an unjammed state; induction of unjammed state in mature monolayer ([5]; control HBECs treated at ALI day 28): unjammed state was induced regardless of monolayer maturity; time at which migratory capacity of control epithelia begins to diminish ([5]; treatment at day 14 of ALI): ~36 h; cell type showing YAP nuclear localization ([6]; control HBECs after treatment): predominantly in multi-ciliated cells (FOXJ1+); YAP nuclear localization [6, 7]: did lead to YAP nuclear localization; proliferation (Ki67+) [6, 7]: neither AREG nor XMU treatment resulted in increased proliferation
EGF: High-affinity EGFR ligand, EGFR agonist (R&D Systems 263-EG) (NSDSECPLSHDGYCLHDGVCMYIEALDKYACNCVVGYIGERCQYRDLKWWELR; Epidermal growth factor; UniProt P01133 971-1023, looked up) |  |  |  | ability to induce an unjammed state in control epithelia [5]: only AREG treatment had the ability to induce an unjammed state
TGFα: High-affinity EGFR ligand, EGFR agonist (R&D Systems 239-A-100) |  |  |  | ability to induce an unjammed state in control epithelia [5]: only AREG treatment had the ability to induce an unjammed state
